Reference: US20180318200A1, “MOUTHWASH PRODUCTS AND METHODS” (COLGATE-PALMOLIVE COMPANY, priority 2015, published 2018)
Where two headings read alike, the source gives them in different places.

Key:
[1] = Nanoindentation (nanohardness and Young's modulus) of acid-etched enamel blocks; design: species or system bovine; details: hydrolyzed wheat protein 0.5 weight %, fluoride 500 ppm; three cycles of 30 minutes treatment + 22 to 24 hours AS
Protocol: Enamel blocks are prepared as described in Example 1. Acid-etching is achieved by placing the enamel blocks in 1% citric acid solution (pH 3.8) for 15 minutes. The nanohardness and Young's modulus at 500 nm depth are measured prior to and after etching. Etched enamel blocks are incubated with a solution of hydrolyzed wheat protein (GLUADIN W20), at a concentration of 0.5 weight %, for 30 minutes (2 ml solution/block), followed by an incubation with AS solution as described in Example 1, for 22 to 24 hours. The hydrolyzed wheat protein and AS incubation steps are repeated two additional times, after which the enamel blocks are rinsed with DI water and air-dried. The nanohardness and Young's modulus of the treated enamel blocks are measured at 500 nm depth to assess the enamel repair effects of the hydrolyzed wheat protein. A solution of 500 ppm fluoride is used as a positive control for the experiment. The results are illustrated in Tables 2 and 3.

[2] = surface microhardness loss, 4 day cycling, four 10 minute treatments per day
Protocol: The selected enamel blocks are then the enamel blocks are pre-treated and subjected to 4 day cycling as described below, using DI water (negative control), 500 ppm F (positive control) and 0.2% wheat hydrolysate (Gluadin W20)+500 ppm F (test material) prepared as described in the previous example. The microhardness of the enamel blocks is measured again as final (MHfinal).
Each enamel block is sanitized in ethanol twice then washed in sterile DI water three times. Then each enamel block is pre-incubated in saliva supernatant at 4° C. overnight to form pellicle on the enamel surface.
Day Two to Five—Dentifrice treatment, demineralization and remineralization: Unstimulated whole saliva is collected from donors, who refrain from eating and oral hygiene in the morning. The saliva is pooled and centrifuged at 8000 rpm for 10 minutes. […] The sediment is washed once using sterile DI water and centrifuged at 8000 rpm for 10 minutes. The water supernatant is removed. The washed sediment is then diluted in the salivary supernatant TSB mixture to an OD (610 nm)=0.5. […]
Surface microhardness loss (SMHL, Demin %) as a percent was calculated as (1−(Microhardnessfinal/Microhardnesssound))*100.

[3] = Microhardness (Knoop) remineralization assay on etched enamel blocks; design: species or system bovine; details: hydrolysate filtrate with CPC 0.1% and fluoride (NaF) as stated in the label
Protocol: Enamel blocks are prepared as described in Example 1. […] Blocks with a Knoop hardness (KH) of at least 300 are selected. The blocks are etched by immersing in 30% phosphoric acid for 15 seconds. The KH on the left and right sides of the blocks are measured. Subsequently, the right side of the blocks are covered with tape prior to treating the blocks with 20 mg/ml solution of hydrolyzed wheat protein (Gluadin W20 from BASF) or hydrolyzed rice protein (GLUADIN R from BASF), each neutralized as described in example 1, for two terms of 30 minutes. (The tape on the right hand side of the blocks prevents exposure of this side to the protein solution and serves as an internal control). The blocks are washed twice with DI water @ 5 minutes, 500 PRM between the two treatments and after the second treatment. Subsequently, the tape is removed and the blocks are incubated in AS solution (0.2 mM MgCl2, 1 mM CaCl2.H2O, 20 mM HEPES buffer, 4 mM KH2PO4, 16 mM KCl, 4.5 mM NH4Cl, 300 ppm NaF, 0.05 wt. % NaN3, at pH 7 (adjusted with 1M NaOH)) for 7 days. After rinsing the enamel blocks with DI water and air-drying the rinsed blocks, microhardness is measured again. Surface microhardness regain (SMHL, Remin %) as a percent is calculated as […]

[4] = evaluation with weight adjustment; two 30 minute ex vivo treatments, 7 days in situ in retainer
Protocol: A treatment phase is completed ex vivo. Initial microhardness (MH) measurements are taken on sound, bovine enamel blocks (MHBaseline). The blocks are then etched with 30% phosphoric acid until there was a 40% change in the microhardness reading from Baseline. The microhardness is recorded as etched (Equation 1, MHEtched). Each etched enamel block is then immersed in a 2 ml solution of pre-treated 0.2% wheat hydrolysate (Gluadin W20)+500 ppm F prepared as described above, or a 2 ml solution of 500 ppm F, for 30 minutes. After 30 minutes, the blocks are washed twice with DI water at 500 RPM for 5 minutes, and then dried with a paper towel. This treatment cycle is repeated. The blocks are then secured within the designated location on a retainer for placement in the oral cavity of a subject. Six enamel blocks are placed in each retainer. Pre-punched holes on the retainer allow saliva fluid to contact etched enamel and to provide minerals for remineralization. […] The treated and control enamel blocks are randomized on the left or right side of the retainer. The retainers are then stored in a refrigerator until Day 1 of the study.
Twenty-six subjects are included in this randomized, blinded study. […] After 7 days, the enamel blocks are taken out of the appliance to take the final microhardness measurements (MHRemineralized) Demineralization and remineralization are calculated as follows: […]

**Q.** Which results are given for `F` [Fluoride, NaF]?
**A.** Nanohardness Repair at 500 nm depth (%) [1]: 31.12%; Young's Modulus Repair at 500 nm depth (%) [1]: 48.50%; Demineralization percentage ([2]; 0.2% sucrose): 8.36%; Demineralization percentage ([2]; 0.4% sucrose): 19.99%; Remineralization % ([3]; listed as Buffer + 250 ppm fluoride): 11.73%; Remineralization % ([3]; listed as Buffer + 500 ppm fluoride): 15.87%; % Remin [4]: 27.6%
